“Also recorded” adds a separate entry of the source.
Experiments:
[1] = tested on: gp130; assay: gp130 null Ba/F3 cells transfected with full-length gp130 or ΔD2 mutant; format: cell-based; conditions: WT gp130 vs ΔD2 mutant
Experimental: (§1) Based on this, it was hypothesized that RCGD 423 acts through gp130 by promoting stable homodimers in the absence of ligand. To confirm that RCGD 423 acts through gp130, the gp130 null cell line Ba/F3 cells was used. Ba/F3 cells were transfected with either full-length gp130 or a mutant gp130 lacking domain 2 (ΔD2), which contains the predicted binding site for RCGD 423 (FIG. 7). […] To verify the specificity of RCGD 423 in vivo, the compound was injected into rat knees in the presence of the small molecule gp130 inhibitor SC144 or a blocking antibody specific for domain 2 of gp130. […] The ability of RCGD 423 to act via inducing formation of gp130 homodimers was then examined by expressing tagged versions of gp130 in 293T cells. In this system, only homodimeric complexes can contain both tagged versions of gp130 (FIG. 9).

[2] = molecular target: T1, gp130 (Rattus norvegicus, UniProt P40190); assay: Injection into rat knees, pSTAT3 and MYC levels; format: in vivo; conditions: injection into rat joints
T1 construct: from tissue; host or cells: rat knee joint in vivo (Sprague-Dawley wild-type in the CFA model)
T1 sequence (P40190 23-918): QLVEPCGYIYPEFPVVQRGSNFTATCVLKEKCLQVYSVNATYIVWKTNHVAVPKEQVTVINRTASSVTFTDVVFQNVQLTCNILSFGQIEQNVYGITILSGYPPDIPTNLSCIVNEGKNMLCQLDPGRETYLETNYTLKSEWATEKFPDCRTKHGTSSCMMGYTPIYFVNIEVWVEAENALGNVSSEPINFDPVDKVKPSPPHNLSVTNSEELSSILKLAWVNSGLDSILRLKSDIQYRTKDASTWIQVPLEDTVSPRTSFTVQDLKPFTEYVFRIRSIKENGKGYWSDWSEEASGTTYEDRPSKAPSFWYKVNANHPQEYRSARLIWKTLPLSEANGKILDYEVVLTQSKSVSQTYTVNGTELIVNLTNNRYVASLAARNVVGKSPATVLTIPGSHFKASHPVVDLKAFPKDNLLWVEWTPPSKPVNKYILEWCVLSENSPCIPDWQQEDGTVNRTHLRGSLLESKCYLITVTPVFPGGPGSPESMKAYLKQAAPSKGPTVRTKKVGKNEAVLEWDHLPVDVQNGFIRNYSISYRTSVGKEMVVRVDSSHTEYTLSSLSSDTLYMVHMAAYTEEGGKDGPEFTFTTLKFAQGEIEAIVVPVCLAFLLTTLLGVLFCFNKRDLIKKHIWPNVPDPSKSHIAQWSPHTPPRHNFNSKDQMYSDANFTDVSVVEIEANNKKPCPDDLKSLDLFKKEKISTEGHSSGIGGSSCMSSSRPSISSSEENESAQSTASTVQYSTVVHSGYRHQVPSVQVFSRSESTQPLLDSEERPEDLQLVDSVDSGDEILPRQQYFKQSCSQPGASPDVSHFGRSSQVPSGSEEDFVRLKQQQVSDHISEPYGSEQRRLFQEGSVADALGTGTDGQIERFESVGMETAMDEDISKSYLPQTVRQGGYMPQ
Experimental: as §1

[3] = molecular target: T2, gp130 homodimers (Homo sapiens, UniProt P40189); assay: Tagged gp130 homodimer detection in 293T cells; format: cell-based; conditions: tagged gp130 in 293T cells
T2 construct: Myc; expressed in transfected cells; host or cells: 293T
T2 sequence (P40189 23-918) 1: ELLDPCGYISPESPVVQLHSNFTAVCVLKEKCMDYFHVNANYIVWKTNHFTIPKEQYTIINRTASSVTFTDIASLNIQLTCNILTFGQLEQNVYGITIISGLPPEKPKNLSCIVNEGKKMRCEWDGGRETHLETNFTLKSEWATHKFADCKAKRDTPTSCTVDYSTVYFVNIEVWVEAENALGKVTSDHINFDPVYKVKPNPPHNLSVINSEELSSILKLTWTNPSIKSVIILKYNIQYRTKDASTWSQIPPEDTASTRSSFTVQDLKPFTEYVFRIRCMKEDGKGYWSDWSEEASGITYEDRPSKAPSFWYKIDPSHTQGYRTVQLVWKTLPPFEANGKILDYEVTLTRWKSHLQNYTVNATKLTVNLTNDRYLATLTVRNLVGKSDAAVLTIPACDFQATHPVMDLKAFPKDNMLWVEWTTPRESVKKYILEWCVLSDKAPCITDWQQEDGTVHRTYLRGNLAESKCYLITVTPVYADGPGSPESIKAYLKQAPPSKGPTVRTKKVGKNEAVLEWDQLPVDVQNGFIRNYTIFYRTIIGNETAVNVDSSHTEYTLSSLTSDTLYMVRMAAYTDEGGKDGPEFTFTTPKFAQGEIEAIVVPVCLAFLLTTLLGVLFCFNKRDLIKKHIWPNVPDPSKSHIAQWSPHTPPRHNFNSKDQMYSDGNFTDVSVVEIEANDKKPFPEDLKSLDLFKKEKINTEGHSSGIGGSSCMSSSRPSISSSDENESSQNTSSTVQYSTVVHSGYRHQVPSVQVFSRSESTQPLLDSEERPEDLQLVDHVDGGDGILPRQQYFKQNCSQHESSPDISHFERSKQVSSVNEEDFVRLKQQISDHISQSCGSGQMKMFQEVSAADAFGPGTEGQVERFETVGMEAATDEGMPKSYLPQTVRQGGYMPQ
T2 sequence (P40189 23-918) 2: T2 sequence (P40189 23-918) 1
Experimental: as §1

[4] = molecular target: T3, OSMR and gp130 (Homo sapiens, UniProt P40189); assay: Receptor competition, gp130-Flag pull-down, OSMR; format: cell-based; conditions: in the presence of OSM; IP-FLAG, WB-OSMR
T3 construct: FLAG; expressed in transfected cells; host or cells: adult human chondrocytes
T3 sequence (P40189 23-918): T2 sequence (P40189 23-918) 1
Experimental: Adult human chondrocytes transfected with gp130-Flag were incubated with various concentrations of RCGD 423 in the presence of IL-6 or OSM; levels of immoprecipitated IL-6R or OSMR were used to calculate the dissociation constant (Kd).
Adult human chondrocytes; IP-FLAG AB (transfected with gp130 FLAG plasmid), WB-OSMR.
This property would be of great interest due to the pro-inflammatory and pro-catabolic effects of these cytokines in the joint space. […] To assess whether RCGD 423 could directly compete for gp130 occupancy, human adult articular chondrocytes were transfected with tagged gp130 and then pulled down associated proteins±RCGD 423 and/or IL-6.

[5] = tested on: adult human PBMCs; assay: ERK and NF-κB downstream of OSM and IL-6 in PBMCs; format: cell-based
Experimental: Accordingly, the ability of RCGD 423 to suppress signaling downstream of IL-6 and OSM in synoviocytes and peripheral blood mononuclear cells was assessed (FIG. 14).

pSTAT3 and MYC levels in rat joints [2]: increased pSTAT3 and MYC levels
SMILES: Brc1ccc(Nc2nc(-c3ccccc3)cs2)cc1 [RCGD 423]
gp130 signaling in gp130−/− Ba/F3 cells [1]: full-length gp130 is required for the activity of RCGD 423; also recorded: only increase gp130 signaling in the presence of RCGD 423 and WT gp130 | detection of gp130 homodimers (gp130-Myc) [3]: only in the presence of RCGD 423 could gp130 homodimers be detected; also recorded: gp130-Myc was only detectable in the presence of RCGD 423 | competition with OSMR for gp130 occupancy / OSMR-gp130 interaction [4]: directly competes with OSMR and IL-6R for gp130 occupancy | increases in ERK and NF-κB levels downstream of OSM and IL-6 [5]: inhibits increases in ERK and NF-κB levels

Reference: patent US12577238B2, “Compositions and methods for modulating inflammatory and degenerative disorder” (University of Southern California, priority 2018, dated 2026)
